This is an account of results in publication PMC5931594, “Substrate-bound outward-open structure of a Na^+-coupled sialic acid symporter reveals a new Na^+ site” (Nature Communications, 2018).

Read-outs that look alike come from different tables or passages of the source. Where only a bound is given, the exact number is not on record here.

This test addresses T1, SiaT (Proteus mirabilis, UniProt B4EZY7).
T1 construct: full-length, C-terminal HRV 3C site-GFP-8xHis tag cleaved by 3C protease; reconstituted in proteoliposomes for uptake
Kind of test: microscale thermophoresis, label-free. It is filed as binding. Conditions: PBS, 0.0174% DDM.

T1 sequence (B4EZY7 whole entry): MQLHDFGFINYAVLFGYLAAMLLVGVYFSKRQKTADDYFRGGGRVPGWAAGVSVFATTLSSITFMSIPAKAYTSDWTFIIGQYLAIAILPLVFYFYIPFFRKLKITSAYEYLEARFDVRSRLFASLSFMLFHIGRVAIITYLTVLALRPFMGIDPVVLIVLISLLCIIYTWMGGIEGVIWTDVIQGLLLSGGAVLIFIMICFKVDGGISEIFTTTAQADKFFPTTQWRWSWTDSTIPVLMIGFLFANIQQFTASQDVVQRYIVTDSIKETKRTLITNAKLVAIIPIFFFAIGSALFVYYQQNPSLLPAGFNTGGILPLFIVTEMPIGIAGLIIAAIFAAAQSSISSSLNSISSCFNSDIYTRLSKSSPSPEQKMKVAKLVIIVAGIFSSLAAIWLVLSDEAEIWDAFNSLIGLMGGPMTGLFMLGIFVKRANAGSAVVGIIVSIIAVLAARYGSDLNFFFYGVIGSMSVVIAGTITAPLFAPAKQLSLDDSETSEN

For `O=C(CO)N[C@H]1[C@H]([C@H](O)[C@H](O)CO)OC(O)(C(=O)O)C[C@@H]1O` (some centres unmarked) [N-glycolylneuraminic acid], under “read-out: Kd^Neu5Gc”, the Kd (in general, the concentration at which binding is half-saturated) stood at 85 ± 2 µM.

With `O=C(O)C1(O)C[C@H](O)[C@@H](O)[C@H]([C@H](O)[C@H](O)CO)O1` (some centres unmarked) [ketodeoxynonulosonic acid], the equilibrium dissociation constant (Kd) was > 10000 µM.
